Test results as given in the supplement of paper PMC10307832.

Experiments:
Test in all cases: relative viability (nuclei count vs DMSO), 5 days (fraction); higher = more cells survive
[1] = compound: NCC(=O)Nc1ccc(-n2nc(C(F)(F)F)cc2-c2ccc3c(ccc4ccccc43)c2)cc1 + O=C(c1cc(Cc2n[nH]c(=O)c3ccccc23)ccc1F)N1CCN(C(=O)C2CC2)CC1 [Olaparib] (partner 8 µM)
How it was run: (§1)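 Medians of duplicate plates are given as relative viability. That measure is the nuclei count in treated wells divided by the count in vehicle wells. Counts were taken on 4× images of lung cancer cell lines in 1536-well plates, 5 days after pin-tool dosing the day after seeding with one drug alone or a fixed anchor-drug dose plus five library-drug doses (not always all listed) in √10 steps.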

[2] = compound: NCC(=O)Nc1ccc(-n2nc(C(F)(F)F)cc2-c2ccc3c(ccc4ccccc43)c2)cc1 + COc1cccc2cc(-c3nc([C@H]4CC[C@H](C(=O)O)CC4)n4ncnc(N)c34)[nH]c12 [OSI-027] (partner 0.5 µM)
How it was run: as §1

[3] = compound: NCC(=O)Nc1ccc(-n2nc(C(F)(F)F)cc2-c2ccc3c(ccc4ccccc43)c2)cc1 + Nc1ncn([C@H]2C[C@H](O)[C@@H](CO)O2)c(=O)n1 [Decitabine] (partner 2 µM)
How it was run: as §1

[4] = compound: NCC(=O)Nc1ccc(-n2nc(C(F)(F)F)cc2-c2ccc3c(ccc4ccccc43)c2)cc1 + C[C@@H](Oc1cc(-c2cnn(C3CCNCC3)c2)cnc1N)c1c(Cl)ccc(F)c1Cl [Crizotinib] (partner 1 µM)
How it was run: as §1

| Cell Line | relative viability ([1]; first compound 0.02 µM) | relative viability ([1]; first compound 0.06325 µM) | relative viability ([1]; first compound 0.2 µM) | relative viability ([1]; first compound 0.6325 µM) | relative viability ([1]; first compound 2 µM) | relative viability ([2]; first compound 0.02 µM) | relative viability ([2]; first compound 0.06325 µM) | relative viability ([2]; first compound 0.2 µM) | relative viability ([2]; first compound 0.6325 µM) | relative viability ([2]; first compound 2 µM) | relative viability ([3]; first compound 0.02 µM) | relative viability ([3]; first compound 0.06325 µM) | relative viability ([3]; first compound 0.2 µM) | relative viability ([3]; first compound 0.6325 µM) | relative viability ([3]; first compound 2 µM) | relative viability ([4]; first compound 0.02 µM) | relative viability ([4]; first compound 0.06325 µM) | relative viability ([4]; first compound 0.2 µM) | relative viability ([4]; first compound 0.6325 µM) | relative viability ([4]; first compound 2 µM) |
| --- | --- | --- | --- | --- | --- | --- | --- | --- | --- | --- | --- | --- | --- | --- | --- | --- | --- | --- | --- | --- |
| NCI-H1915 | 0.256 | 0.287 | 0.25 | 0.255 | 0.257 | 0.463 | 0.652 | 0.639 | 0.617 | 0.63 | 0.272 | 0.275 | 0.276 | 0.262 | 0.256 | 0.864 | 0.873 | 0.871 | 0.83 | 0.898 |
| NCI-H596 | 0.627 | 0.77 | 0.739 | 0.714 | 0.658 | 0.731 | 0.865 | 0.83 | 0.727 | 0.799 | 1.13 | 1.01 | 1.07 | 0.995 | 1.12 | 1 | 1.12 | 1.01 | 1.05 | 0.943 |
| NCI-H322M | 0.865 | 0.759 | 0.782 | 0.802 | 0.794 | 0.532 | 0.536 | 0.556 | 0.546 | 0.566 | 0.723 | 0.732 | 0.716 | 0.637 | 0.724 | 1.06 | 0.835 | 0.962 | 0.909 | 0.922 |
| NCI-H647 | 0.593 | 0.573 | 0.657 | 0.486 | 0.483 | 0.494 | 0.681 | 0.67 | 0.573 | 0.773 | 0.44 | 0.436 | 0.423 | 0.436 | 0.301 | 1.17 | 1.14 | 1.13 | 0.976 | 0.747 |
| SK-MES-1 | 0.773 | 0.727 | 0.84 | 0.775 | 0.706 | 0.677 | 0.575 | 0.622 | 0.616 | 0.646 | 0.386 | 0.36 | 0.461 | 0.359 | 0.4 | 1.04 | 0.994 | 1.04 | 0.979 | 1.03 |
| NCI-H2170 | 0.689 | 0.638 | 0.62 | 0.673 | 0.605 | 0.67 | 0.678 | 0.711 | 0.824 | 0.735 | 0.496 | 0.454 | 0.518 | 0.446 | 0.45 | 1.24 | 1.22 | 1.1 | 1.22 | 1.22 |
| NCI-H2085 | 0.853 | 0.802 | 0.801 | 0.829 | 0.812 | 0.688 | 0.908 | 0.654 | 0.691 | 0.802 | 0.577 | 0.519 | 0.592 | 0.556 | 0.534 | 0.862 | 0.901 | 0.938 | 0.865 | 0.819 |
| SW 1573 | 0.554 | 0.506 | 0.531 | 0.479 | 0.404 | 0.593 | 0.658 | 0.759 | 0.487 | 0.551 | 0.496 | 0.524 | 0.524 | 0.518 | 0.436 | 0.756 | 0.756 | 0.837 | 0.848 | 0.911 |
| NCI-H727 | 0.504 | 0.801 | 0.754 | 0.666 | 0.583 | 0.533 | 0.504 | 0.579 | 0.694 | 0.737 | 0.941 | 0.647 | 0.869 | 0.874 | 0.812 | 1.03 | 0.816 | 0.897 | 0.787 | 0.899 |
| NCI-H441 | 0.546 | 0.58 | 0.52 | 0.493 | 0.598 | 0.647 | 0.675 | 0.613 | 0.551 | 0.631 | 0.274 | 0.276 | 0.225 | 0.266 | 0.248 | 1.08 | 0.666 | 0.73 | 0.6 | 0.749 |
| LOU-NH91 | 0.967 | 0.959 | 0.933 | 0.922 | 0.995 | 0.752 | 0.737 | 0.711 | 0.716 | 0.735 | 0.836 | 0.829 | 0.816 | 0.849 | 0.84 | 0.725 | 0.761 | 0.754 | 0.565 | 0.756 |
| NCI-H3122 | 0.675 | 0.637 | 0.633 | 0.693 | 0.558 | 1.04 | 0.941 | 0.899 | 0.98 | 0.876 | 0.445 | 0.418 | 0.495 | 0.448 | 0.435 | 0.275 | 0.287 | 0.266 | 0.289 | 0.279 |
| NCI-H460 | 0.368 | 0.41 | 0.458 | 0.354 | 0.446 | 0.583 | 0.642 | 0.696 | 0.587 | 0.675 | 0.486 | 0.525 | 0.478 | 0.479 | 0.366 | 0.922 | 0.952 | 0.931 | 0.811 | 0.688 |
| NCI-H650 | 0.395 | 0.415 | 0.421 | 0.399 | 0.396 | 0.508 | 0.524 | 0.541 | 0.443 | 0.524 | 0.34 | 0.295 | 0.443 | 0.315 | 0.367 | 0.728 | 0.809 | 0.72 | 0.653 | 0.802 |
| NCI-H661 | 0.773 | 0.731 | 0.763 | 0.713 | 0.73 | 0.681 | 0.691 | 0.724 | 0.673 | 0.715 | 0.507 | 0.592 | 0.524 | 0.579 | 0.572 | 1.16 | 0.905 | 1.11 |  | 1.01 |
| NCI-H1734 | 0.629 | 0.603 | 0.678 | 0.569 | 0.575 | 0.561 | 0.601 | 0.577 | 0.594 | 0.552 | 0.545 | 0.497 | 0.488 | 0.485 | 0.534 | 0.801 | 0.611 | 0.788 | 0.739 | 0.683 |
